Measured values from EP1087973B1, “IMIDAZOTRIAZOLOPYRIMIDINES USED AS A DRUG HAVING AN ADENOSINE ANTAGONIST ACTIVITY” (Boehringer Ingelheim Pharma KG, priority 1998, dated 1999).

How the values were obtained:
[1] = biological target: T1, human A3-adenosine receptor (Homo sapiens, UniProt P0DMS8); assay: A3 receptor binding, determined in analogy to Salvatore et al.; settings: KiA3 (human) Rezeptorbindungswerte, Tabelle 3
T1 sequence (P0DMS8 1-318): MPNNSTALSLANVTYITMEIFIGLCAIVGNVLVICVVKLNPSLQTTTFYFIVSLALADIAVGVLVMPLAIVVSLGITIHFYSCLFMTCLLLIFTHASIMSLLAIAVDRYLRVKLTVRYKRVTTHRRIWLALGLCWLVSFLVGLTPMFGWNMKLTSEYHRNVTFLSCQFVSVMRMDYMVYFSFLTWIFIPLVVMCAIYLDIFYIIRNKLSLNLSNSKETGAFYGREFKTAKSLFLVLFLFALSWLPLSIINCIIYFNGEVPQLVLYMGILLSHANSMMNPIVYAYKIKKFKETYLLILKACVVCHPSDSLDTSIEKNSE
Text: Tabelle 3 enthält KiA3 (human) Rezeptorbindungswerte.

[2] = biological target: T2, human A1 adenosine Receptor (Homo sapiens, UniProt P30542); assay: A1 receptor binding, determined in analogy to Ensinger et al.; settings: KiA1 (human) Rezeptorbindungswerte, Tabelle 2; read-out: KjA1
T2 sequence (P30542 1-326): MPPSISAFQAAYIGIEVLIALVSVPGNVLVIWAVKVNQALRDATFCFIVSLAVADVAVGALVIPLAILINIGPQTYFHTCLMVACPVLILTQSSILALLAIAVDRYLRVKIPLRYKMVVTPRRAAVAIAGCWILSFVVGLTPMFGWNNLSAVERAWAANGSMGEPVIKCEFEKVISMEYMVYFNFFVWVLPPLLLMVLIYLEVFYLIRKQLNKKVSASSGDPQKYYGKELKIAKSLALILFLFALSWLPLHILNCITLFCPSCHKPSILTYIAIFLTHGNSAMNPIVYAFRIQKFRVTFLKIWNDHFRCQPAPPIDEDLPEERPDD
Text: Die nachfolgende Tabelle enthält KiA1 (human) Rezeptorbindungswerte.

Structure (SMILES): CCCc1nc2c([nH]1)c(=O)n(CCC)c1nc(C3CCCC3)nn21 [Beispiel 2, 2-Cyclopentyl-4,7-di-n-propyl-imidazo[4.5-e]-s-triazolo[1.5-a]pyrimidin-5-on]
- Ki [1]: 5.6 nM

Structure (SMILES): CCCn1c(=O)c2[nH]c(C)nc2n2nc(Cc3ccccc3)nc12 [Beispiel 8, 2-Benzyl-7-methyl-4-n-propyl-imidazo[4.5-e]-s-triazolo[1.5-a]pyrimidin-5-on]
- Ki [1]: 0.9 nM

Structure (SMILES): CCn1c(=O)c2[nH]c(C)nc2n2nc(CCc3ccccc3)nc12 [Beispiel 10, 4-Ethyl-7-methyl-2-(2-phenylethyl)-imi-dazo[4.5-e]-s-triazolo[1.5-a]pyrimidin-5-on]
- Ki [1]: 7.2 nM

Structure (SMILES): CCCc1nc2c([nH]1)c(=O)n(CC)c1nc(CCc3ccccc3)nn21 [Beispiel 11, 4-Ethyl-2-(2-phenylethyl)-7-n-propyl-imi-dazo[4.5-e]-s-triazolo[1.5-a]pyrimidin-5-on]
- Ki [2]: 8.1 nM

Structure (SMILES): CCn1c(=O)c2[nH]c(C(C)(C)C)nc2n2nc(Cc3ccc(O)cc3)nc12 [Beispiel 12, 7-t-Butyl-4-ethyl-2-(4-hydroxybenzyl)-imi-dazo[4.5-e]-s-triazolo[1.5-a]pyrimidin-5-on]
- Ki [2]: 6 nM

Structure (SMILES): CCn1c(=O)c2[nH]c(C(C)(C)C)nc2n2nc(Cc3ccc(OC)cc3)nc12 [Beispiel 15, 7-t-Butyl-4-ethyl-2-(4-methoxybenzyl)-imi-dazo[4.5-e]-s-triazolo[1.5-a]pyrimidin-5-on]
- Ki [2]: 2.1 nM

Structure (SMILES): CCn1c(=O)c2[nH]c(C3CCCC3)nc2n2nc(COc3ccccc3)nc12 [Beispiel 29, 7-Cyclopentyl-4-ethyl-2-phenyloxymethyl-imidazo[4.5-e]-s-triazolo[1.5-a]pyrimidin-5-on]
- Ki [2]: 3.6 nM

Structure (SMILES): CCn1c(=O)c2[nH]c(C3CCCC3)nc2n2nc(Cn3cccc3)nc12 [Beispiel 35, 7-Cyclopentyl-4-ethyl-2-(N-pyrrolylmethyl)-imidazo[4.5-e]-s-triazolo[1.5-a]pyrimidin-5-on]
- Ki [2]: 2.6 nM

Structure (SMILES): CCCn1c(=O)c2[nH]c(C)nc2n2nc(-c3ccco3)nc12 [Beispiel 36, 2-(2-Furanyl)-7-methyl-4-n-propyl-imi-dazo[4.5-e]-s-triazolo[1.5-a]pyrimidin-5-on]
- Ki [1]: 2.2 nM

Structure (SMILES): CCCc1nc2c([nH]1)c(=O)n(CCC)c1nc(-c3ccco3)nn21 [Beispiel 37, 2-(2-Furanyl)-4,7-di-n-propyl-imidazo[4.5-e]-s-triazolo[1.5-a]pyrimidin-5-on]
- Ki [1]: 8.3 nM
